Laboratory results: patent publication US20260083864A1, “CONTRAST AGENTS FOR USE IN DIAGNOSTIC COMPUTED TOMOGRAPHY IMAGING” (Bayer Aktiengesellschaft, priority 2022, published 2026)

Assays:
OATP1B3 = target: T1, OATP1B3 (Homo sapiens, UniProt Q9NPD5); experiment: Uptake into stable transfected OATP1B3 HEK 293 cells; format: cell-based; settings: for Inhibition Rifampicine: uptake into OATP1B3-HEK 293 cells; for Uptake into OATP1B3-HEK 293 cells: 40 min incubation, relative to RC1 (Gd-EOB-DTPA)
T1 sequence (Q9NPD5 1-702): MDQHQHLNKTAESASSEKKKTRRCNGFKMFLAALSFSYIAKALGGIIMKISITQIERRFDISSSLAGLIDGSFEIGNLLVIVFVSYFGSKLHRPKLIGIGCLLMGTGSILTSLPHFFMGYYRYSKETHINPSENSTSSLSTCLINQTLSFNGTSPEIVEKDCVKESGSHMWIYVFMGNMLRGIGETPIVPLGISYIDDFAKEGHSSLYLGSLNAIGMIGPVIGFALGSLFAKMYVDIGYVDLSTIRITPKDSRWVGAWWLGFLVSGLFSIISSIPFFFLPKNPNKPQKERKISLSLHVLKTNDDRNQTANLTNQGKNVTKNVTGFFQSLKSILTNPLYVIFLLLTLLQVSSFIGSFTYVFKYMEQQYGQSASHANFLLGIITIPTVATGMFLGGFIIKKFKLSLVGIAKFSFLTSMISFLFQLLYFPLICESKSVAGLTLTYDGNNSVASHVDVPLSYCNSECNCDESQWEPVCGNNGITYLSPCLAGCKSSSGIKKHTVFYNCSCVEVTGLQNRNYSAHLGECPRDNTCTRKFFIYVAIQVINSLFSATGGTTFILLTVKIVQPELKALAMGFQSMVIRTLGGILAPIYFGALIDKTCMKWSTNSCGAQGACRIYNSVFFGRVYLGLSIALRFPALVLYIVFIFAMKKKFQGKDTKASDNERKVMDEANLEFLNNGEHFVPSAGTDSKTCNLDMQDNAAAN
Procedure, shortened: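 HEK 293 cells stably transfected with human OATP1B3 were incubated for 40 min with test items at 100 μM final in transport buffer, in triplicate, then washed with cold PBS. Gadoxetate (Gd-EOB-DTPA) served as the reference standard on the same plate.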

[1] = Relaxivity measurements at 1.41 T in water; format: physicochemical; settings: 37° C., normalized to Gd
Procedure, shortened: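 T1 by inversion recovery and T2 by CPMG at 1.41 T (60 MHz), 37° C, relaxation delay ≥5×T1. Three Gd concentrations between 0.05 and 2 mM; relaxivities derived from measured relaxation rates in water.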

[2] = Water solubility in aqueous buffer; settings: aqueous buffer 10 mM Tris-HCl, pH 7.4, 20° C.
Procedure: The solid compounds were added stepwise to the buffer solution. More substance is added once all the suspended material is dissolved until an equilibrium between undissolved and dissolved substance is reached. The suspension was mixed using a shaker (Heidolph Reax 2000) and treated 5 min in an ultrasound bath (Bandelin, Sonorex Super RK255H).

[3] = system: freshly isolated rat hepatocytes; experiment: Uptake into freshly isolated rat hepatocytes; settings: for Uptake rat hepatocytes: 100 μmol Gd/L, 10 min, 37° C., relative to RC1 (Gd-EOB-DTPA); for Inhibition Rifampicine: rat hepatocyte uptake, test item and Rifampicine 1:1, each 100 μM
[4] = Partition coefficient (log P butanol/buffer); format: physicochemical; settings: 1-butanol / 50 mM Tris-HCl, pH 7.4, room temperature
OATP1B1 = target: T2, OATP1B1 (Homo sapiens, UniProt Q9Y6L6); experiment: Uptake into stable transfected OATP1B1 HEK 293 cells; format: cell-based; settings: for Inhibition Rifampicine: uptake into OATP1B1-HEK 293 cells; for Uptake into OATP1B1-HEK 293 cells: 40 min incubation, relative to RC1 (Gd-EOB-DTPA)
T2 sequence (Q9Y6L6 1-691): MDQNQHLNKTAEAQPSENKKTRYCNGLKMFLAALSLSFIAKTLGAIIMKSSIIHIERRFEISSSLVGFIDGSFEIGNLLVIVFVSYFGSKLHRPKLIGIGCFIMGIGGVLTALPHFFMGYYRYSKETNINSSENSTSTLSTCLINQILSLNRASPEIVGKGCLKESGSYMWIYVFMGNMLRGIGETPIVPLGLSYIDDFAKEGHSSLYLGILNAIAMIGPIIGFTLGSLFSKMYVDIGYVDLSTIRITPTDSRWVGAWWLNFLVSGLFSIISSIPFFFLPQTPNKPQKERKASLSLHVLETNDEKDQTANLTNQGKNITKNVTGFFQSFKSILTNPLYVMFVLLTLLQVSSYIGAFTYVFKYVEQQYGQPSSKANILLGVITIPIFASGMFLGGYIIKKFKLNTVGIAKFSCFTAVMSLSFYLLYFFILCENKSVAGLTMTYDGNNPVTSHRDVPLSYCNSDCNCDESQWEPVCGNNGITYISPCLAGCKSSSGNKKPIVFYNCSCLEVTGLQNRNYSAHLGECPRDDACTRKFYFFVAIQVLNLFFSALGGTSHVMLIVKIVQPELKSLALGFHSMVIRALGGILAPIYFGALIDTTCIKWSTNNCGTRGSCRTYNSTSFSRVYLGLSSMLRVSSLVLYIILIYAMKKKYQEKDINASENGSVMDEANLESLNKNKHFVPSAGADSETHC
Procedure, shortened: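 Uptake measured in triplicate after a 40 min, unshaken exposure of OATP1B1-expressing HEK293 cells to 100 µM (final) compound in transport buffer. Cold PBS wash stopped uptake; Gd-EOB-DTPA served as reference standard within each plate.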

[5] = Relaxivity measurements at 1.41 T in human plasma; format: physicochemical; settings: 37° C., normalized to Gd
Procedure, shortened: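 T1 determined by inversion recovery (8 inversion-time steps) and T2 by CPMG sequence, both with relaxation delay ≥5×T1. Each relaxivity used three Gd concentrations between 0.05 and 2 mM. Relaxivities were derived from relaxation rates measured in water and plasma.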

| SMILES | Inhibition Rifampicine (OATP1B3) [% inhibition] | r1 water [1] [L/mmol/s] | Solubility [2] [mM] | Uptake rat hepatocytes [3] | Inhibition Rifampicine [3] [% inhibition] | Log P (partition coefficient butanol/buffer) [4] | Inhibition Rifampicine (OATP1B1) [% inhibition] | r1 human plasma [5] [L/mmol/s] | Uptake into OATP1B3-HEK 293 cells (OATP1B3) | Uptake into OATP1B1-HEK 293 cells (OATP1B1) |
| --- | --- | --- | --- | --- | --- | --- | --- | --- | --- | --- |
| CCOCCOCCOc1ccc(CCC[C@@H](C(=O)O)N2CCN([C@H](CO)C(=O)[O-])CCN([C@H](CO)C(=O)[O-])CCN([C@H](CO)C(=O)[O-])CC2)cc1.[Gd+3] [Example 20, gadolinium (2R,2′R,2″R)-2,2′,2″-{10-[(1S)-1-carboxy-4-{4-[2-(2-ethoxyethoxy)ethoxy]phenyl}butyl]-1,4,7,10-tetraazacyclododecane-1,4,7-triyl}tris(3-hydroxypropanoate)] | 99 | 5.6 | >381 | 71 % of RC1 | 91 | −1.11 | 87 | 9.8 |  |  |
| CCOCCOCCOc1ccc(CC(C(=O)O)N2CCN(CC(=O)[O-])CCN(CC(=O)[O-])CCN(CC(=O)[O-])CC2)nc1.[Gd+3] (stereo not shown) [Example 23, gadolinium 2,2′,2″-{10-[1-carboxy-2-{5-[2-(2-ethoxyethoxy)ethoxy]pyridin-2-yl}ethyl]-1,4,7,10-tetraazacyclododecane-1,4,7-triyl}triacetate] | 71 | 4.5 | >241 | 17 % of RC1 | 73 | −1.94 | 0 | 6.0 |  |  |
| CCCOc1ccc(CCC(C(=O)O)N2CCN(CC(=O)[O-])CCN(CC(=O)[O-])CCN(CC(=O)[O-])CC2)cc1.[Gd+3] (stereo not shown) [Example 24, gadolinium 2,2′,2″-{10-[1-carboxy-3-(4-propoxyphenyl)propyl]-1,4,7,10-tetraazacyclododecane-1,4,7-triyl}triacetate] | 94 | 4.1 | >261 | 40 % of RC1 | 96 | −0.71 | 87 | 8.8 | 17 % of RC1 | 229 % of RC1 |
| CCCC(C(=O)[O-])N1CCN(CC(=O)[O-])CCN(C(Cc2ccc(OCC)cc2)C(=O)O)CCN(CC(=O)[O-])CC1.[Gd+3] (stereo not shown) [Example 29, gadolinium 2-{7-[1-carboxy-2-(4-ethoxyphenyl)ethyl]-4,10-bis(carboxylatomethyl)-1,4,7,10-tetraazacyclododecan-1-yl}pentanoate] | 99 | 4.4 | >305 | 87 % of RC1 | 99 | −0.53 | 96 | 7.5 | 75 % of RC1 | 493 % of RC1 |
| CCCC(C(=O)[O-])N1CCN(CC(=O)[O-])CCN(C(Cc2ccc(OCC)cc2)C(=O)O)CCN(CC(=O)[O-])CC1.[Gd+3] (stereo not shown) [Example 30, gadolinium 2-{7-[1-carboxy-2-(4-ethoxyphenyl)ethyl]-4,10-bis(carboxylatomethyl)-1,4,7,10-tetraazacyclododecan-1-yl}pentanoate] | 98 | 4.7 | >35 | 75 % of RC1 | 99 | −0.60 | 90 | 7.6 | 62 % of RC1 | 169 % of RC1 |
| CCOCCOc1ccc(CC(C(=O)O)N2CCN(CC(=O)[O-])CCN(CC(=O)[O-])CCN(CC(=O)[O-])CC2)cc1.[Gd+3] (stereo not shown) [Example 32, gadolinium 2,2′,2″-(10-{1-carboxy-2-[4-(2-ethoxyethoxy)phenyl]ethyl}-1,4,7,10-tetraazacyclododecane-1,4,7-triyl)triacetate] | 94 | 4.1 | >198 | 54 % of RC1 | 93 | −1.53 | 72 | 6.6 | 22 % of RC1 | 147 % of RC1 |
| CCOCCOCCOc1cc(CC(C(=O)O)N2CCN(CC(=O)[O-])CCN(CC(=O)[O-])CCN(CC(=O)[O-])CC2)cc(OCCOCCOCC)c1.[Gd+3] (stereo not shown) [Example 39, gadolinium 2,2′,2″-{10-[2-{3,5-bis[2-(2-ethoxyethoxy)ethoxy]phenyl}-1-carboxyethyl]-1,4,7,10-tetraazacyclododecane-1,4,7-triyl}triacetate] | 88 | 4.8 | >255 | 17 % of RC1 | 64 | −1.32 | 12 | 7.8 | 26 % of RC1 | 59 % of RC1 |
| CCOCCOCCOc1ccc(CC(C(=O)O)N2CCN(CC(=O)[O-])CCN(C(CO)C(=O)[O-])CCN(CC(=O)[O-])CC2)cc1.[Gd+3] (stereo not shown) [Example 41, gadolinium-2-{7-[1-carboxy-2-{4-[2-(2-ethoxyethoxy)ethoxy]phenyl}ethyl]-4,10-bis(carboxylatomethyl)-1,4,7,10-tetraazacyclododecan-1-yl}-3-hydroxypropanoate] | 74 | 4.5 | >13 | 52 % of RC1 | 56 | −1.61 | 30 | 5.7 | 47 % of RC1 | 218 % of RC1 |
